Assay results taken from patent US10478492B2, “Modifications of therapeutic agents for enhanced delivery to target sites” (Partikula LLC, priority 2016, dated 2019).
Like-named read-outs stand apart in the source and are kept apart here. Values belong to the molecule of their own block, whether it stands above or below them.

What was measured:
[1] = target: monocarboxylate transporters (MCT); conditions: competitive inhibitor of lactate transport in tumors; read-out: Ki as inhibitor of lactate transport; cited from earlier work
[2] = Stability in cell culture media containing 10% FBS by HPLC; format: in vitro ADME
Description: Stability of ADCA in cell culture media containing 10% FBS was examined by looking at the HPLC chromatograms and area under the peaks. For the study, […] solution of ADCA was prepared by mixing 10 μL of 100 mM DMSO stock solution with 1.99 mL of cell media. Turbidity was observed after mixing, however no precipitate was observed. The samples were then stored at 37° C., 150 μL aliquots were analyzed by HPLC (the sample was mixed before taking an aliquot, however no visible precipitate was observed even before mixing). Alanyl-DCA was detected at 205 nm with a retention time of 9.7 min on HPLC.
Stability of Mito-ADCA in cell culture media containing 10% FBS was monitored by examining the HPLC chromatograms and area under the peaks. Scheme below expected degradation products:
For this study, 500 μM solution of Mito-ADCA (MAD) was prepared by mixing 10 μL of 100 mM DMSO stock solution with 1.99 mL of cell culture media (RPMI 1640 medium, supplemented with 10% FBS, 1% Pen/strep). Turbidity was observed after mixing, however no precipitate was observed. The samples were then stored at 37° C., 150 μL aliquots were analyzed by HPLC (the sample was mixed before taking an aliquot, and no visible precipitate was observed even before mixing).
Using HPLC, MitoADCA (MAD), loss of one alanyl-DCA (MAD-ADCA), loss of three alanyl-DCA (i.e., TPP-Tris-OH) and the alanyl-DCA (ADCA) were tracked. MAD was detected and monitored at 268 nm with retention time of 18.08 min, Mito-A-DCA missing 1 alanyl DCA at 268 nm with retention time of 17.13 min, total amount of MAD and Mito-A-DCA missing 1 alanyl DCA at 268 nm, TPP-Tris-OH at 268 nm with retention time of 14.6 min, and alanyl DCA at 205 nm with retention time of 9.5 min. The MAD half-life in cell media at 500 μM was measured as ˜20 h. TPP-Tris-OH starts appearing in HPLC only after 10 h in media.

PDHK2 = PDHK2 (Homo sapiens, UniProt Q15119); conditions: cited from earlier work
[3] = system: PDH activity in primary rat hepatocytes; conditions: read-out: EC50 for increase of PDH activity; cited from earlier work
HCT116 cells = assay: Cytotoxicity in HCT116 cells; format: cell-based
Description: (§1) Next the cytotoxicity ability of PDCA and PDCA-NPs were studied in A549 and HCT16 cells to evaluate the ability of these new formulations with respect to NaDCA.
(§2) Next the cytotoxicity ability of PalmMetformin and NPs were studied in A549 and HCT16 cells to evaluate the ability of these new formulations with respect to Meformin.

A549 cells = assay: Cytotoxicity in A549 cells; format: cell-based
Description: as §1, §2

[4] = Stability in 18% rat serum by HPLC; format: in vitro ADME
Description: (§3) In a further study, Mito-ADCA stability testing was carried out in rat serum. 0.5 mg/mL solutions 18% rat serum were prepared and analyzed by HPLC. Mito-ADCA was detected at 268 nm with a retention time of 18.08 min over time of 4500 min in 18% rat serum. […] After 2 d a peak of TPP-Tris-OH was observed. The amount of TPP-Tris-OH corresponded to 76% of the original.
(§4) Stability of TPP-bis-ADCA in rat serum and water was carried out using 500 μg/mL solution in 18% rat serum. The solution was analyzed by HPLC for two days.
(§5) Hydrolytic stability of TPP-ibDCA in serum, and in water was studied. A 500 μg/mL solution of TPP-ib-DCA in water, and in 18% rat serum was analyzed by HPLC using the method for Mito-ADCA/DCA detection described above. […] In water, hydrolysis of TPP-ib-DCA stops halfway likely due to the acidification of the solution.

[5] = Stability in water by HPLC; format: physicochemical; conditions: for stability in water: 2 days
Description: as §3, §4, §5

[6] = A549 cells, 24 + 48 h, read-out: IC50 (24 + 48 h)
[7] = A549 cells, 72 h, read-out: IC50 (72 h)
[8] = 500 μg/mL in 18% rat serum, two days

Structure (SMILES): N#CC(=Cc1ccc(O)cc1)C(=O)O [ACCA, α-cyano-4-hydroxy cinnamic acid]
Ki [1]: 500 µM

Structure (SMILES): O=C(O)CCNC(=O)C(Cl)Cl [ADCA, β-alanyl-DCA]
change in ADCA concentration (total area of absorbance peak) ([2]; 1.5 mM, cell culture media with 10% FBS, 37° C., five days): virtually no change in ADCA concentration over five days

Structure (SMILES): CN(C)C(=O)c1ccc(S(=O)(=O)c2ccc(NC(=O)[C@@](C)(O)C(F)(F)F)c(Cl)c2)cc1 [AZD7545, 4-[3-chloro-4-[[(2R)-3,3,3-trifluoro-2-hydroxy-2-methylpropanoyl]amino]phenyl]sulfonyl-N,N-dimethylbenzamide]
IC50 (PDHK2): 0.0064 µM
EC50 [3]: 0.105 µM

Structure (SMILES): CN(C)C(=N)N=C(N)N [Meformin, Metformin, reference compound]
IC50 (HCT116 cells; Homo sapiens, HCT-116, 24 + 48 h, Table 4, read-out: IC50 (24 + 48 h)): > 500 µM
IC50 (HCT116 cells; Homo sapiens, HCT-116, 72 h, Table 4, read-out: IC50 (72 h)): > 500 µM
IC50 (HCT116 cells; Homo sapiens, HCT-116, read-out: IC50 values): > 500 µM
IC50 (A549 cells; Homo sapiens, A549 cells, 24 + 48 h, Table 4, read-out: IC50 (24 + 48 h)): > 500 µM
IC50 (A549 cells; Homo sapiens, A549 cells, 72 h, Table 4, read-out: IC50 (72 h)): > 500 µM
IC50 (A549 cells; Homo sapiens, A549 cells, read-out: IC50 values): > 500 µM

half-life at 0.5 mg/mL ([4]; 0.5 mg/mL in 18% rat serum): ~7 h
half-life at 500 μM ([2]; cell culture medium with 10% FBS (no cells), 500 μM, RPMI 1640 with 10% FBS, 37° C.): ~20 h
Structure (SMILES): O=C(CCCCC[P+](c1ccccc1)(c1ccccc1)c1ccccc1)NC(COC(=O)CCNC(=O)C(Cl)Cl)(COC(=O)CCNC(=O)C(Cl)Cl)COC(=O)CCNC(=O)C(Cl)Cl.[Br-] [Mito-ADCA, TPP-Tris-β-alanino-DCA]
species released by hydrolysis ([4]; 18% rat serum): Alanyl-DCA is released as a result of hydrolysis instead of DCA
species released by hydrolysis ([2]; cell media with 10% FBS): Alanyl-DCA is released as a result of hydrolysis instead of DCA
stability in water [5]: stable in water for 2 days without signs of decomposition

Structure (SMILES): O=C([O-])C(Cl)Cl.[Na+] [NaDCA, reference compound]
IC50 (HCT116 cells; 24 + 48 h, read-out: IC50 (24 + 48 h)): > 20000 µM
IC50 (HCT116 cells; 72 h, read-out: IC50 (72 h)): > 20000 µM
IC50 (A549 cells; [6]): > 20000 µM
IC50 (A549 cells; [7]): > 20000 µM
IC50 (A549 cells; cell line not stated in the sentence (A549 and HCT16 cells studied), read-out: IC50 value): ≥ 20000 µM

Structure (SMILES): CCCCCCCCCCCCCCCC(=O)NC(COC(=O)CCNC(=O)C(Cl)Cl)(COC(=O)CCNC(=O)C(Cl)Cl)COC(=O)CCNC(=O)C(Cl)Cl [PADCA, Palm-Tris-β-alanino-DCA]
IC50 (A549 cells; Homo sapiens, A549 cells, free PADCA, read-out: IC50 value): ~400 µM

Structure (SMILES): CCCCCCCCCCCCCCCC(=O)NC(COC(=O)C(Cl)Cl)(COC(=O)C(Cl)Cl)COC(=O)C(Cl)Cl [PDCA, Palmitic-Tris-DCA]
IC50 (A549 cells; [6]): 204 µM
IC50 (A549 cells; [7]): 175 µM
IC50 (A549 cells; cell line not stated in the sentence (values match A549 of Table 2), read-out: IC50 value): ~204 µM

decomposition in serum ([4]; 500 μg/mL in 18% rat serum, after 2 days): 2%
detection of DCA [4, 8]: no DCA was detected
stability in serum [4, 8]: stable in both serum and water
stability in water [5]: stable in both serum and water
Structure (SMILES): O=C(NCCCCC(NC(=O)C(Cl)Cl)C(=O)NCCCC[P+](c1ccccc1)(c1ccccc1)c1ccccc1)C(Cl)Cl (stereo not shown) [TPP-bis-ADCA]

Structure (SMILES): CC(C)(OC(=O)C(Cl)Cl)C(=O)NCCCC[P+](c1ccccc1)(c1ccccc1)c1ccccc1.[Br-] [TPP-ib-DCA, (4-(2-(2,2-dichloroacetoxy)-2-methylpropanamido)butyl) triphenylphosphonium bromide]
appearance of free DCA ([4]; 500 μg/mL in 18% rat serum): delayed relative to the disappearance of the ester
hydrolysis in serum compared with MitoDCA ([4]; 500 μg/mL in 18% rat serum): slower than MitoDCA
hydrolysis in water ([5]; 500 μg/mL in water): stops halfway
